# Data: ChEMBL document CHEMBL1139948, “Design and synthesis of novel hydantoin-containing melanin-concentrating hormone receptor antagonists” (Bioorg Med Chem Lett, 2007)
# The source made the active and inactive calls. No cut-off for these calls is given here.
# What was measured:
# [1] = molecular target: Melanin-concentrating hormone receptor 1 (Homo sapiens, UniProt Q99705); assay: Displacement of [125I][Phe13, Tyr19]MCH from human recombinant MCHR1 expressed in CHO cells; assay type: cell-based
# Chain of Melanin-concentrating hormone receptor 1 (Q99705 whole entry): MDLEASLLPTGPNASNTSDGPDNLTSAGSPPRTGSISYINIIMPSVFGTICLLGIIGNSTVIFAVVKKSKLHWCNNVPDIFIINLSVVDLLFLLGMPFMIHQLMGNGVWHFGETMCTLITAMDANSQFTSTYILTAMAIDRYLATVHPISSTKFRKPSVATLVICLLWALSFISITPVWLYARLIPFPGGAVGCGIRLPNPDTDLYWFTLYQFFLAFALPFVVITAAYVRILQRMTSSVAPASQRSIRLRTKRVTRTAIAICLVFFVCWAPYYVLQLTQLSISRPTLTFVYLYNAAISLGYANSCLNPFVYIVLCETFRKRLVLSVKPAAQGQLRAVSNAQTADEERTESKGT
# Mus musculus [2] = assay: Antidepressant effect in mouse at 10 mg/kg, ip assessed as reduction in immobility duration after 30 mins by forced swimming test relative to control; assay type: functional; set-up: scale not given: the % may be the effect or the level left; conditions: route intraperitoneal
# [3] = molecular target: 5-hydroxytryptamine receptor 2A (Homo sapiens, UniProt P28223); assay: Binding affinity to 5HT2A receptor
# Chain of 5-hydroxytryptamine receptor 2A (P28223 whole entry): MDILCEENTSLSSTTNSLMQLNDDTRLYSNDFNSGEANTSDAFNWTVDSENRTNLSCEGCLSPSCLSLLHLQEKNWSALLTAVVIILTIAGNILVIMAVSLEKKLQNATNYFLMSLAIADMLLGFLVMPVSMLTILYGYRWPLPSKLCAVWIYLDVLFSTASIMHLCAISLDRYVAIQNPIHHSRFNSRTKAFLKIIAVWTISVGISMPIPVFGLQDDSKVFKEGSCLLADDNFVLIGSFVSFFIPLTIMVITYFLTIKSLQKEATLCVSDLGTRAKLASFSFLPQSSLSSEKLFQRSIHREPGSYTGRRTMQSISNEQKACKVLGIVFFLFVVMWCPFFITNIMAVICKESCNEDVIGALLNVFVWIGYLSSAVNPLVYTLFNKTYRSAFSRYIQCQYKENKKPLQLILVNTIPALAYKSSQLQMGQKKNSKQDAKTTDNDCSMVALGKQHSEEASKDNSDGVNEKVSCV
# [4] = molecular target: T1, 5-hydroxytryptamine receptor 2C (Homo sapiens, UniProt P28335); assay: Binding affinity to 5HT2C receptor
# T1 sequence (P28335 whole entry): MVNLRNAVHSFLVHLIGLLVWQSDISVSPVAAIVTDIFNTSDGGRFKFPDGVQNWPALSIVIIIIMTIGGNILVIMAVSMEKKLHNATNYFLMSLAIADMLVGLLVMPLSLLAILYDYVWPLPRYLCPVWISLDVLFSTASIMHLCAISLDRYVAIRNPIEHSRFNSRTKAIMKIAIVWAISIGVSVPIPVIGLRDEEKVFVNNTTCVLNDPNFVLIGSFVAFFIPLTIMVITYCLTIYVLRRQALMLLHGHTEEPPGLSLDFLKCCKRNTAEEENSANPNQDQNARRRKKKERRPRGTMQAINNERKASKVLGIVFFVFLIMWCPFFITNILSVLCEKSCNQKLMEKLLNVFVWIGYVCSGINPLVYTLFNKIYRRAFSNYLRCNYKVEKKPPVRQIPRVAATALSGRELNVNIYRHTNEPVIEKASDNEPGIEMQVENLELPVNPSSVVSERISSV
# [5] = molecular target: Melanin-concentrating hormone receptor 2 (Homo sapiens, UniProt Q969V1); assay: Binding affinity to MCHR2
# Chain of Melanin-concentrating hormone receptor 2 (Q969V1 whole entry): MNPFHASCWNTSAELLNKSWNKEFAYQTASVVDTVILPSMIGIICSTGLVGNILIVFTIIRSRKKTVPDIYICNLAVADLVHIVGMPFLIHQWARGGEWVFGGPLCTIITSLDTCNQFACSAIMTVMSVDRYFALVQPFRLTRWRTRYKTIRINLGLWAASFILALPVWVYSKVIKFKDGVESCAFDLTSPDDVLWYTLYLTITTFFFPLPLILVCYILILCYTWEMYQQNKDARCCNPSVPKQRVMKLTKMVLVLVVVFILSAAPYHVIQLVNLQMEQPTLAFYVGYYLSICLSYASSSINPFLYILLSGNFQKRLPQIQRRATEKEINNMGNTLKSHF
# [6] = Binding affinity to L-verapamil site of calcium channel; set-up: species or system Homo sapiens
# [7] = Permeability across human Caco-2 cell membrane; assay type: ADME, cell-based; conditions: read-out: permeability
# Mus musculus [8] = assay: Reduction of cumulative food intake in over-night fasted mouse at 30 mg/kg, ip after 3 hrs relative to control; assay type: functional; set-up: scale not given: the % may be the effect or the level left; conditions: route intraperitoneal
# Mus musculus [9] = assay: Antidepressant effect in mouse at 30 mg/kg, ip assessed as reduction in immobility duration after 30 mins by forced swimming test relative to control; assay type: functional; set-up: scale not given: the % may be the effect or the level left; conditions: route intraperitoneal
# hERG (KCNH2) = hERG (KCNH2) (Homo sapiens, UniProt Q12809); assay: Inhibition of hERG-mediated current amplitude at 1 uM; assay type: toxicity
# Chain of hERG (KCNH2) (Q12809 whole entry): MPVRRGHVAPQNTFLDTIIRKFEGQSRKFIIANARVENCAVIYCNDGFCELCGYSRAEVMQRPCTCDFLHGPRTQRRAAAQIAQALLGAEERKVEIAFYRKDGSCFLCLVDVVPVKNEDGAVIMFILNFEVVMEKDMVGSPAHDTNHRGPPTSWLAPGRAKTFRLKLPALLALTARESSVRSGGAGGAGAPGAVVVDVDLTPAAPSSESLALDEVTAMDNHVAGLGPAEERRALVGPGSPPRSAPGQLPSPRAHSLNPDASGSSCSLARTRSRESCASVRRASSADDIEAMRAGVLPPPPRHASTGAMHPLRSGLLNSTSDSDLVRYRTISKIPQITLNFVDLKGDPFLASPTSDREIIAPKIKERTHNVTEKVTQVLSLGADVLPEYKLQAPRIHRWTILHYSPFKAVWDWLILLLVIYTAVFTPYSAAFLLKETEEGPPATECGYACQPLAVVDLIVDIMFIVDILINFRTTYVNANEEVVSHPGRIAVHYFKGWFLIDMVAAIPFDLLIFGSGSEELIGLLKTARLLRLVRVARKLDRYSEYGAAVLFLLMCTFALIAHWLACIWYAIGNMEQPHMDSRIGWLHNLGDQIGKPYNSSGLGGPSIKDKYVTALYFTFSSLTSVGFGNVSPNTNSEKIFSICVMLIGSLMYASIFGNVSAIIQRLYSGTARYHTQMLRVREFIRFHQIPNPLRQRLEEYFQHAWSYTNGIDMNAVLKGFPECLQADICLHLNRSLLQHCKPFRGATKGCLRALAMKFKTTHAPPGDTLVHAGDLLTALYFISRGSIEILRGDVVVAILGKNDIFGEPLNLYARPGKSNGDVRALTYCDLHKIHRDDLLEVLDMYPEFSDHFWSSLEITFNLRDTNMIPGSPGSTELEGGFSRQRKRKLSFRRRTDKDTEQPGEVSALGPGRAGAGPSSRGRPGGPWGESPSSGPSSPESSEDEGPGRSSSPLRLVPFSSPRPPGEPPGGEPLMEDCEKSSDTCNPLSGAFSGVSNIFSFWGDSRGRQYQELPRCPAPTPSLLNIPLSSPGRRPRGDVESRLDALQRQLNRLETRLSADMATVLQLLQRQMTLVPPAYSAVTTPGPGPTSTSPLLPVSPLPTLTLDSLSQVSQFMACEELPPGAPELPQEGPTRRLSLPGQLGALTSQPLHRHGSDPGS
# Mus musculus [10] = assay: Toxicity in mouse at 10 to 100 mg/kg, ip by Irwins method; assay type: organism-based; set-up: dose 10-100 mg/kg, route intraperitoneal; conditions: in vivo
# Mus musculus [11] = assay: Reduction of cumulative food intake in over-night fasted mouse at 10 mg/kg, ip after 3 hrs relative to control; assay type: functional, organism-based; set-up: dose 10 mg/kg
# [12] = molecular target: Muscarinic acetylcholine receptor M4 (Homo sapiens) (UniProt P08173); assay: Binding affinity to muscarinic M4 receptor
SMILES,Ki [1],further results
COc1cc(N2C(=O)CN(c3ccc(-c4ccccc4)cc3)C2=O)ccc1OCCN1CCCC1,> 5000 nM,
COc1cc(NC(=O)Nc2ccc(Oc3ccccc3)cc2)ccc1OCCN1CCCC1,101 nM,
O=C1N/C(=C\c2ccc(CN3CCCCC3)cc2)C(=O)N1c1ccc(Oc2ccccc2)cc1,> 5000 nM,
O=C1N/C(=C\c2ccc(CN3CCOCC3)cc2)C(=O)N1c1ccc(Oc2ccccc2)cc1,> 5000 nM,
O=C1N/C(=C\c2ccc(CNCc3ccccc3)cc2)C(=O)N1c1ccc(Oc2ccccc2)cc1,> 5000 nM,
O=C1N/C(=C\c2ccc(CN3CCN(Cc4ccccc4)CC3)cc2)C(=O)N1c1ccc(Oc2ccccc2)cc1,> 5000 nM,
COc1cc(Nc2nc(-c3ccc(Oc4ccccc4)cc3)cs2)ccc1OCCN1CCCC1,1000 nM,
CN(C)CCCN1c2ccccc2CCc2ccccc21 [IMIPRAMINE],,Activity (Mus musculus [2]): -58%
COc1cc(NC(=O)c2ccc(-c3ccccc3)cc2)ccc1OCCN1CCCC1,25 nM,
O=C1N/C(=C\c2ccc(CN3CCCC3)cc2)C(=O)N1c1ccc(Oc2ccccc2)cc1,220 nM,Ki [3]: > 5000 nM; Ki [4]: > 10000 nM; Ki [5]: > 10000 nM; Ki [6]: 330 nM; Papp [7]: > 6 ×10⁻⁶ cm/s; Activity (Mus musculus [8]): 41%; Activity (Mus musculus [9]): -57%; inhibition at 1 µM (hERG (KCNH2)): 73%; Activity (Mus musculus [10]): Non-toxic
COc1cc(NC(=O)c2ccc(Oc3ccccc3)cc2)ccc1OCCN1CCCC1,82 nM,
COc1cc(NC(=S)Nc2ccc(Oc3ccccc3)cc2)ccc1OCCN1CCCC1,1090 nM,
CN(C)CC1CCc2cc(NC(=O)c3ccc(-c4ccc(F)cc4)cc3)ccc2C1 (centres undefined),38 nM,
COc1cc(N2C(=O)CN(c3ccc(Oc4ccccc4)cc3)C2=O)ccc1OCCN1CCCC1,365 nM,
O=C1N/C(=C\c2ccc(CN3CCC(O)C3)cc2)C(=O)N1c1ccc(Oc2ccccc2)cc1 (racemic),176 nM,Activity (Mus musculus [8]): 47%
COc1cc(N2CC(=O)N(c3ccc(-c4ccccc4)cc3)C2=O)ccc1OCCN1CCCC1,415 nM,
O=C1N/C(=C\c2ccc(CNC3CCCC3)cc2)C(=O)N1c1ccc(Oc2ccccc2)cc1,> 5000 nM,
CC(C)CC(N(C)C)C1(c2ccc(Cl)cc2)CCC1 (centres undefined),,Activity (Mus musculus [11]): Active
O=C1N/C(=C\c2ccc(CN3CCCCCC3)cc2)C(=O)N1c1ccc(Oc2ccccc2)cc1,357 nM,
O=C1N/C(=C\c2ccc(CN3CCN(c4ccccc4)CC3)cc2)C(=O)N1c1ccc(Oc2ccccc2)cc1,> 5000 nM,
CN(C)Cc1ccc(/C=C2\NC(=O)N(c3ccc(Oc4ccccc4)cc3)C2=O)cc1,341 nM,
CN(C)CCNCc1ccc(/C=C2\NC(=O)N(c3ccc(Oc4ccccc4)cc3)C2=O)cc1,707 nM,
CC(=O)N1CCN(Cc2ccc(/C=C3\NC(=O)N(c4ccc(Oc5ccccc5)cc4)C3=O)cc2)CC1,2060 nM,
COc1cc(N2CC(=O)N(c3ccc(Oc4ccccc4)cc3)C2=O)ccc1OCCN1CCCC1,164 nM,Ki [3]: 330 nM; Ki [4]: 880 nM; Activity (Mus musculus [8]): 51%; Ki [12]: 370 nM
COc1cc(NC(=O)Nc2ccc(-c3ccccc3)cc2)ccc1OCCN1CCCC1,260 nM,
